From PMC12016938, “A small molecule PKCε inhibitor reduces hyperalgesia induced by paclitaxel or opioid withdrawal” (JCI Insight, 2025)
“And” between values parts separate entries of the source, which are not always exact repeats. Identical values can stand only once.

Experiments:
[1] = system: hyperalgesia induced by morphine withdrawal; assay: Reversal of hyperalgesia due to morphine withdrawal, von Frey SUDO; assay type: in vivo, C57BL/6J mice
Description: We next tested if CP612 reverses hyperalgesia induced by withdrawal from repeated administration of morphine in male and female C57BL/6J mice. Since the pain thresholds of mice receiving repeated administration of saline were not affected by treatment with vehicle or CP612 injection (Figure 6), mice in this experiment were only treated with morphine. […] Both male and female mice that received vehicle continued to show hyperalgesia up to 4 weeks after the last injection of morphine.

PKCγ = target: T1, PKCγ (Homo sapiens, UniProt P05129); assay: Lance-FRET kinase assay, PKCγ; assay type: biochemical; settings: Figure 1B
T1 construct: purchased SignalChem Biotech
Procedure: Kinase assays. CP612 was assayed against His-AVI–tagged human PKCε (1 nM) produced in Sf9 cells, and ROCK1 (Carna Biosciences; 5 nM) using the Lance-FRET kinase assay system (PerkinElmer Revvity). Other human recombinant PKCs (SignalChem Biotech) were assayed in triplicate at the following concentrations: PKCβII 1.6 nM, PKCγ 500 pM, PKCδ 5 nM, PKCθ 500 pM, and PKCζ 500 pM. PKCs were incubated in a 15 μL reaction volume with kinase buffer (20 mM Tris-HCL [pH 7.4], 10 mM MgCl2, 0.25 mM EGTA, 0.1 mg/mL BSA, and 0.15% Triton X-100), 50 nM ULight-labeled CREBtide […] (PerkinElmer, TRF0107, Revvity), and test compound. […] After incubation at 27°C for another 60 minutes, phosphorylation was detected using a FlexStation 3 Microplate Reader (Molecular Devices) in LANCE TR-FRET mode (excitation = 340 nm, emission = 665 nm) and expressed as relative fluorescence units (RFU). The percentage of inhibition was calculated as: (signal without test compound − signal with test compound)/(signal without test compound − signal without ATP) × 100. […]
Kinase assays used 11-point concentration-response curves and results were analyzed by nonlinear regression using Prism 9 (GraphPad Software) to determine IC50 values. […] Scores for pain threshold, conditioned place preference, and self-administration were analyzed by ANOVA using the following factors. […]

PKN1 (Protein kinase N1) = target: T2, PKN1 (Protein kinase N1) (Homo sapiens, UniProt Q16512); assay: scanMax kinome panel, PKN1; assay type: binding; settings: 200 nM CP612; read-out: scanMax % of control, PKN1
T2 construct: purchased Eurofins-DiscoverX
T2 sequence (Q16512 whole entry): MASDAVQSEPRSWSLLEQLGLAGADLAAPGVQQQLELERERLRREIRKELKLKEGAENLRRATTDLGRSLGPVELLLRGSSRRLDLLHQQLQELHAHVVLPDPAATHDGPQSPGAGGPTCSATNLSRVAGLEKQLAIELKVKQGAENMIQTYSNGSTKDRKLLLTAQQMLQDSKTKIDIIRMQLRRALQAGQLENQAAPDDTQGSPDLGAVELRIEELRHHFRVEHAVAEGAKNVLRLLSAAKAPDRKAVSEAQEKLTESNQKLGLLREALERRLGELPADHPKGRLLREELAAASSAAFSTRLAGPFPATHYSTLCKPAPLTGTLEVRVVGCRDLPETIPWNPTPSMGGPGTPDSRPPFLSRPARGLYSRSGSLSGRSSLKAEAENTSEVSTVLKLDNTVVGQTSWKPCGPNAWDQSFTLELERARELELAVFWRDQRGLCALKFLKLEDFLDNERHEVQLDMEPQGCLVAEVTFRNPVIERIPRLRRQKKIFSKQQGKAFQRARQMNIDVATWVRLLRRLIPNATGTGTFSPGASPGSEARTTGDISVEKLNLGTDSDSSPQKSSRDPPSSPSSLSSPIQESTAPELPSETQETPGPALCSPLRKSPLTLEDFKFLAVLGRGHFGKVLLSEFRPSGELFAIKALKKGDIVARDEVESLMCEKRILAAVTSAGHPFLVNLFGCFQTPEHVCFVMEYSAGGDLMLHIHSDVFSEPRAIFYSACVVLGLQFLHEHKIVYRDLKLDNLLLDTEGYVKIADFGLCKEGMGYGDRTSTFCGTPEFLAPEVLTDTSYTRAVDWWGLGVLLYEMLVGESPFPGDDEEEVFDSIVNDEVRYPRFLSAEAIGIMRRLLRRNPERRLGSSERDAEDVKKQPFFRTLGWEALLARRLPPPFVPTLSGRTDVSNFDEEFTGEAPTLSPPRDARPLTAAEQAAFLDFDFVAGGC
Procedure: (§1) CP612 was screened for kinome specificity at 200 nM against 468 kinases using the scanMax assay panel from Eurofins-DiscoverX. CP612 inhibited 10 other WT kinases besides PKCε, all to < 10% of control: CLK1 (CDC Like Kinase 1), CLK4, PKN1 (Protein kinase N1), PKN2, PKCδ, PKCη, PKCθ, PRKG2 (Protein Kinase CGMP-Dependent 2), ROCK1, and ROCK2.

[2] = system: hyperalgesia induced by morphine withdrawal; assay: Prevention of hyperalgesia due to morphine withdrawal, von Frey SUDO; assay type: in vivo, C57BL/6J mice; settings: for von Frey filament number that led to paw withdrawal: prevention, individual mouse
Description: We next investigated if CP612 prevents hyperalgesia induced by withdrawal from repeated administration of morphine, in male and female C57BL/6J mice. […] These findings indicate that a single dose of the PKCε inhibitor can prevent hyperalgesia induced by opioid withdrawal.

[3] = system: paclitaxel-induced hyperalgesia; assay: Paclitaxel-induced hyperalgesia, Randall-Selitto paw pressure test; settings: for Force applied that led to paw withdrawal: one paw
Procedure: We tested if CP612 reverses this hyperalgesia. Male rats received repeated injections of paclitaxel (1 mg/kg, i.p. on days 1, 3, 5, and 7). Twenty-four hours after the last dose of paclitaxel, rats were administered vehicle (2 mL/kg, i.p.) or CP612 (20 mg/kg, i.p.).
Mechanical nociceptive thresholds in rats were quantified by the Randall-Selitto paw pressure test using an Ugo Basile Analgesy-Meter. This device applies a linearly increasing mechanical force to the dorsum or plantar region of the rat hind paw. The mechanical nociceptive threshold is defined as the force in grams at which a rat withdraws its paw. The higher the force to elicit paw withdrawal, the higher the pain threshold (and the lower the sensitivity to pain). For studies testing nociceptive thresholds after the PKCε activator ψεRACK, or after the cancer chemotherapeutic drug paclitaxel, rats were placed into cylindrical acrylic restrainers for 40 minutes before starting each session. The restrainers had lateral ports to allow access to the hind paw, as previously described ([35]), and pain thresholds were measured by applying force to the dorsum of the hind paw. Prior to starting experiments, baseline mechanical nociceptive threshold was obtained as the mean of 2–3 readings on 1 hind paw in each rat.

CLK4 = target: T3, CLK4 (Homo sapiens, UniProt Q9HAZ1); assay: scanMax kinome panel, CLK4; assay type: binding; settings: 200 nM CP612; read-out: scanMax % of control, CLK4
T3 construct: purchased Eurofins-DiscoverX
T3 sequence (Q9HAZ1 whole entry): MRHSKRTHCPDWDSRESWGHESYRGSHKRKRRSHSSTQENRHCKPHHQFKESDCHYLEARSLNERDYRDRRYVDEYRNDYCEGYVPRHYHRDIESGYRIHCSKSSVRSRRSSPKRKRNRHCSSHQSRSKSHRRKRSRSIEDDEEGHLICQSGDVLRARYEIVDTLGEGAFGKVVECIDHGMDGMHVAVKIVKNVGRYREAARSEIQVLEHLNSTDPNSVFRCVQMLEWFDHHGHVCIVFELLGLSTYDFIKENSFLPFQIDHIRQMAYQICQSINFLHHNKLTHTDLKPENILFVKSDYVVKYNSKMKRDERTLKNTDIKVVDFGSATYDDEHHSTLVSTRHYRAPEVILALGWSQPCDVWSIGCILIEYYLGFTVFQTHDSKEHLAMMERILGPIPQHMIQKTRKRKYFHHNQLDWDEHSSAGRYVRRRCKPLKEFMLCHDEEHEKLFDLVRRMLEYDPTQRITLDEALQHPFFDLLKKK
Procedure: as §1

ROCK2 = target: T4, ROCK2 (Homo sapiens, UniProt O75116); assay: scanMax kinome panel, ROCK2; assay type: binding; settings: 200 nM CP612
T4 construct: purchased Eurofins-DiscoverX
T4 sequence (O75116 whole entry): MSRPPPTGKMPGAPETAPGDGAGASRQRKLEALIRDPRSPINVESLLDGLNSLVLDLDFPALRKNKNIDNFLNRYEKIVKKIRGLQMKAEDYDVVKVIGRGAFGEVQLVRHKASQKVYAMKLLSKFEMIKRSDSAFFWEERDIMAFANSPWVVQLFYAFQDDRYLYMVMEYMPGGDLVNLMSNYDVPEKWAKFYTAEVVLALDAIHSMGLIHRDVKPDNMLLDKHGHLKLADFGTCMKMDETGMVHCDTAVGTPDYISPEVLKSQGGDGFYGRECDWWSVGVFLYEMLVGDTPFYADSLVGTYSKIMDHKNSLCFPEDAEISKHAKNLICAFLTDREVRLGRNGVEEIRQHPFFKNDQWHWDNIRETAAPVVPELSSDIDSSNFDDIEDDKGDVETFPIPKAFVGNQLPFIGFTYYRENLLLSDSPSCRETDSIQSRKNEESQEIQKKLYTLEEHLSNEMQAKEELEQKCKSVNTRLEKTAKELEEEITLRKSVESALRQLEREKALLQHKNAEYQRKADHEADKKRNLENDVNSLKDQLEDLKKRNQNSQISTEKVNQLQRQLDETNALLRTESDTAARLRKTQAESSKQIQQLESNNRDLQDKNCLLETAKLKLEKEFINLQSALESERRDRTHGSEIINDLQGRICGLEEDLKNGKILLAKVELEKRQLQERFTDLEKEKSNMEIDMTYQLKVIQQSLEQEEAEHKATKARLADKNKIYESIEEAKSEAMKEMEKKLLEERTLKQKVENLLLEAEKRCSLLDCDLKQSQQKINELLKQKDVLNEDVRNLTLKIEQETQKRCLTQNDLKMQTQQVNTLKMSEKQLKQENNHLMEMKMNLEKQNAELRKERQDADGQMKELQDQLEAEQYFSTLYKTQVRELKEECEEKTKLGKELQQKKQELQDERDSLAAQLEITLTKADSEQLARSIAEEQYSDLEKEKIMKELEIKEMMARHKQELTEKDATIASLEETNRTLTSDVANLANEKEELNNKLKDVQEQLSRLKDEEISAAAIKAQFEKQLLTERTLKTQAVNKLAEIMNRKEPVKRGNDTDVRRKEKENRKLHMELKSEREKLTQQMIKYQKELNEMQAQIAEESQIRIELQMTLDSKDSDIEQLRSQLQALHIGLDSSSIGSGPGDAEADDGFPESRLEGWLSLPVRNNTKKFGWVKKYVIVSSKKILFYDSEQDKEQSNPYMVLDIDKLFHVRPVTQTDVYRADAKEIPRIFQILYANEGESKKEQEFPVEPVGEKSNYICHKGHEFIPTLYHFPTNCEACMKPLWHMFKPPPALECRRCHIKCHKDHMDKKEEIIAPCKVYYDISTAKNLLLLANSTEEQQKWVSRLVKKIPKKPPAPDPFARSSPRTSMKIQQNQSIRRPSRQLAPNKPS
Procedure: as §1

ROCK1 = ROCK1 (Homo sapiens, UniProt Q13464); assay: scanMax kinome panel, ROCK1; assay type: binding; design: purchased Eurofins-DiscoverX; settings: 200 nM CP612
ROCK1, sequence (Q13464 whole entry): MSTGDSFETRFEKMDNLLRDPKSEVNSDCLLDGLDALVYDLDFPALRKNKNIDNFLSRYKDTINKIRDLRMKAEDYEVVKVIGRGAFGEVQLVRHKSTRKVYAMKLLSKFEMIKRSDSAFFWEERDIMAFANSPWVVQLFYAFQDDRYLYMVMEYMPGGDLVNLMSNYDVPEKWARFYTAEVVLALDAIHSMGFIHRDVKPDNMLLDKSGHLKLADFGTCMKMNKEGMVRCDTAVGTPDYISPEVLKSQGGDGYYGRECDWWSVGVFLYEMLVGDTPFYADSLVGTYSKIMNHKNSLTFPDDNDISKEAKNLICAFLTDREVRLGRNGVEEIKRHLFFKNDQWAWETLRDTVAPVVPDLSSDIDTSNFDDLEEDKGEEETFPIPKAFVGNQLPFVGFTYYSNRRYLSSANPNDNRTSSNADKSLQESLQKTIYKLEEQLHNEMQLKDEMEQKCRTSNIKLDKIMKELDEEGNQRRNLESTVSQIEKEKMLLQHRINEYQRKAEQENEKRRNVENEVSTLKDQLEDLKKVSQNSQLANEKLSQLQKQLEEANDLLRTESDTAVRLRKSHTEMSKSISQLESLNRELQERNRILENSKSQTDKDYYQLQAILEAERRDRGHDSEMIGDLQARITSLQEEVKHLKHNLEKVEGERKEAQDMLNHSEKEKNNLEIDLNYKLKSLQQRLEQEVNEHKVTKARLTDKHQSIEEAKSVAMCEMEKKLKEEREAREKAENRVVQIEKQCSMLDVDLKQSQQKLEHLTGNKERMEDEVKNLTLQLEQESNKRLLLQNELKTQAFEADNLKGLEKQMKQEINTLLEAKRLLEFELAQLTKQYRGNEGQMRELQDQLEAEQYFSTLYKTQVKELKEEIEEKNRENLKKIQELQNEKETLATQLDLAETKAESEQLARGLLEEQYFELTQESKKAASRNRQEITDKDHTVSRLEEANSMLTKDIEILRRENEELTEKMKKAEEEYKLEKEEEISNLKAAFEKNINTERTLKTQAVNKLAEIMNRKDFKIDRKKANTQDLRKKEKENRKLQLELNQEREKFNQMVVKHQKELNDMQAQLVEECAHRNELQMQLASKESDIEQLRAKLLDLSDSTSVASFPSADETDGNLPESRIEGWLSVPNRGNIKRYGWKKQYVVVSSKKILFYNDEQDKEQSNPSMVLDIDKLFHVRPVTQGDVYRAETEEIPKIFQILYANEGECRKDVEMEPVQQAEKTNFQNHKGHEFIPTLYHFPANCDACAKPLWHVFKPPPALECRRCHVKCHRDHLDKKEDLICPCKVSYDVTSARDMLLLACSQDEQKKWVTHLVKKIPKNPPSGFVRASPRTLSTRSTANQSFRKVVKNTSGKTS
Procedure: as §1

[4] = target: T5, PRKG2 (Protein Kinase CGMP-Dependent 2) (Homo sapiens, UniProt Q13237); assay: scanMax kinome panel, PRKG2; assay type: binding; settings: 200 nM CP612
T5 construct: purchased Eurofins-DiscoverX
Procedure: as §1

[5] = single dose CP612 20 mg/kg i.p.

## N[C@H](CNC(=O)C1(c2ccc(Cl)cc2)CCCC1)c1ccc(C(=O)Nc2ccncc2)cc1 [CP612]
[1]; male and female mice, CP612 20 mg/kg i.p. 2 weeks after last morphine injection
  Effect on established morphine-withdrawal hyperalgesia: reversed
[1]; [5]
  Duration of reversal of hyperalgesia: 2 weeks
PKCγ
  Inhibition of conventional PKCγ: weakly inhibited
PKN1 (Protein kinase N1)
  remaining binding at 0.2 µM: < 10%
[2]; male and female mice, CP612 20 mg/kg i.p.
  Effect on pain thresholds after repeated saline: not modified
[2]; male and female mice, CP612 20 mg/kg i.p. 6 hours after last morphine injection
  Effect on development of morphine-withdrawal hyperalgesia: prevented
[2]; female mice, Morphine schedule, 1week
  von Frey filament number that led to paw withdrawal: 9 and 8
[2]; female mice, Morphine schedule, 2weeks
  von Frey filament number that led to paw withdrawal: 8.75
[2]; female mice, Morphine schedule, 3weeks
  von Frey filament number that led to paw withdrawal: 8.5
[2]; female mice, Morphine schedule, 4weeks
  von Frey filament number that led to paw withdrawal: 8.5
[2]; female mice, Morphine schedule, 24h
  von Frey filament number that led to paw withdrawal: 7.5 and 9.5
[2]; female mice, Morphine schedule, Baseline
  von Frey filament number that led to paw withdrawal: 9 and 9.5
[2]; female mice, Saline schedule, 1week
  von Frey filament number that led to paw withdrawal: 9.5 and 9 and 8.5 and 10
[2]; female mice, Saline schedule, 2weeks
  von Frey filament number that led to paw withdrawal: 9.5 and 9 and 10
[2]; female mice, Saline schedule, 3weeks
  von Frey filament number that led to paw withdrawal: 9 and 9.5 and 10
[2]; female mice, Saline schedule, 4weeks
  von Frey filament number that led to paw withdrawal: 9.5 and 9 and 10
[2]; female mice, Saline schedule, 24h
  von Frey filament number that led to paw withdrawal: 9 and 8 and 8.5 and 10
[2]; female mice, Saline schedule, Baseline
  von Frey filament number that led to paw withdrawal: 9.5 and 8.5 and 9 and 10 and 10.5
[2]; male mice, Morphine schedule, 1week
  von Frey filament number that led to paw withdrawal: 9.5 and 7.5 and 8.5 and 9 and 8 and 10
[2]; male mice, Morphine schedule, 2weeks
  von Frey filament number that led to paw withdrawal: 9 and 7.5 and 8 and 9.5 and 9.25 and 7.75 and 10.5
[2]; male mice, Morphine schedule, 3weeks
  von Frey filament number that led to paw withdrawal: 8 and 9 and 9.5 and 10.5
[2]; male mice, Morphine schedule, 4weeks
  von Frey filament number that led to paw withdrawal: 8 and 7.5 and 9.5 and 9 and 11 and 10
[2]; male mice, Morphine schedule, 24h
  von Frey filament number that led to paw withdrawal: 8.5 and 7.5 and 9.5 and 8 and 7 and 10.5
[2]; male mice, Morphine schedule, Baseline
  von Frey filament number that led to paw withdrawal: 7.5 and 7 and 8.5 and 9.5 and 9
[2]; male mice, Saline schedule, 1week
  von Frey filament number that led to paw withdrawal: 9 and 8.5 and 9.5 and 10.5 and 10
[2]; male mice, Saline schedule, 2weeks
  von Frey filament number that led to paw withdrawal: 6.5 and 7 and 9 and 8.5 and 8 and 9.5 and 10
[2]; male mice, Saline schedule, 3weeks
  von Frey filament number that led to paw withdrawal: 9.5 and 9 and 10
[2]; male mice, Saline schedule, 4weeks
  von Frey filament number that led to paw withdrawal: 8 and 6.5 and 6 and 9 and 7.5 and 9.5 and 10 and 10.5
[2]; male mice, Saline schedule, 24h
  von Frey filament number that led to paw withdrawal: 7.5 and 7 and 9 and 9.5 and 10
[2]; male mice, Saline schedule, Baseline
  von Frey filament number that led to paw withdrawal: 7.5 and 8.5 and 6.5 and 8 and 9 and 9.5 and 10.5
[2]; [5]
  Duration of prevention of hyperalgesia after administration: up to 4 weeks
[3]; 0min (24 h after last paclitaxel, before CP612)
  Force applied that led to paw withdrawal: 95 grams and 102.5 grams and 100 grams and 97.5 grams and 101.7 grams
[3]; 15min after CP612 20 mg/kg intraperitoneally, 20 mg/kg
  Force applied that led to paw withdrawal: 120 grams and 125 grams and 110 grams and 115 grams and 117.5 grams
[3]; 30min after CP612 20 mg/kg intraperitoneally, 20 mg/kg
  Force applied that led to paw withdrawal: 110 grams and 122.5 grams and 117.5 grams and 112.5 grams
[3]; 60min after CP612 20 mg/kg intraperitoneally, 20 mg/kg
  Force applied that led to paw withdrawal: 111.7 grams and 120 grams and 116.7 grams and 113.3 grams and 121.7 grams
[3]; 120min after CP612 20 mg/kg intraperitoneally, 20 mg/kg
  Force applied that led to paw withdrawal: 101.7 grams and 116.7 grams and 111.7 grams and 103.3 grams and 96.7 grams and 115 grams
[3]; 24h after CP612 20 mg/kg intraperitoneally, 20 mg/kg
  Force applied that led to paw withdrawal: 85 grams and 116.7 grams and 90 grams and 91.7 grams and 96.7 grams
[3]; baseline (before paclitaxel and CP612)
  Force applied that led to paw withdrawal: 127.5 grams and 125 grams and 140 grams
[3]; male rats, CP612 20 mg/kg i.p., 15, 30, 60 and 120 minutes
  Effect on paclitaxel-induced hyperalgesia: attenuated
[3]; male rats, CP612 20 mg/kg i.p., 24 hours
  Decrease in paclitaxel-induced hyperalgesia 1 day after CP612: dissipated
CLK4
  remaining binding at 0.2 µM: < 10%
ROCK2
  scanMax % of control, ROCK2: < 10 % of control
ROCK1
  scanMax % of control, ROCK1: < 10 % of control
[4]
  scanMax % of control, PRKG2: < 10 % of control
